Results: publication PMC3857843, “Multiple Transport-Active Binding Sites Are Available for a Single Substrate on Human P-Glycoprotein (ABCB1)” (PLoS ONE, 2013)

Assays:
Test in all cases: Transport of fluorescent substrates in BacMam-transduced HeLa cells (flow cytometry)
F343C mutant Pgp = F343C mutant Pgp (Homo sapiens, UniProt P08183, C1074A/C1125A/C1227A/C137A/C431A/C717A/C956A/F343C); conditions: compared to cysless WT Pgp (taken as 100%), calcein-AM 0.5 µM 10 min, Rh123 […], other substrates 0.5 µM 45 min
Description: (§1) The BacMam-Pgp virus (encoding cysless WT and the mutant Pgps) was added to 2.5 million HeLa cells at a titer of 50-60 viral particles per cell in 3 ml of DMEM and incubated at 37°C [30]. After 1 hr DMEM was added to make a total of 20 ml in the flask and these infected cells were further incubated for 3-4 hrs. 10 mM butyric acid was then added and the cells continued to incubate at 37°C. After 24 hrs, the cells were trypsinized, washed, counted and analyzed by flow cytometry for cell surface expression and the function of the wildtype and mutant Pgps.
(§2) The transport function of cysless WT and mutant Pgps was determined using fluorescent compounds with flow cytometry as previously described. […] Cells were washed with cold PBS and resuspended in PBS containing 0.1% BSA before analysis.

F343C/V982C mutant Pgp = F343C/V982C mutant Pgp (Homo sapiens, UniProt P08183, C1074A/C1125A/C1227A/C137A/C431A/C717A/C956A/F343C/V982C); conditions: compared to cysless WT Pgp (taken as 100%), calcein-AM 0.5 µM 10 min, Rh123 […], other substrates 0.5 µM 45 min
Description: as §1, §2

F728C mutant Pgp = F728C mutant Pgp (Homo sapiens, UniProt P08183, C1074A/C1125A/C1227A/C137A/C431A/C717A/C956A/F728C); conditions: compared to cysless WT Pgp (taken as 100%), calcein-AM 0.5 µM 10 min, Rh123 […], other substrates 0.5 µM 45 min
Description: as §1, §2

F728C/V982C mutant Pgp = F728C/V982C mutant Pgp (Homo sapiens, UniProt P08183, C1074A/C1125A/C1227A/C137A/C431A/C717A/C956A/F728C/V982C); conditions: compared to cysless WT Pgp (taken as 100%), calcein-AM 0.5 µM 10 min, Rh123 […], other substrates 0.5 µM 45 min
Description: as §1, §2

F978C mutant Pgp = F978C mutant Pgp (Homo sapiens, UniProt P08183, C1074A/C1125A/C1227A/C137A/C431A/C717A/C956A/F978C); conditions: compared to cysless WT Pgp (taken as 100%), calcein-AM 0.5 µM 10 min, Rh123 […], other substrates 0.5 µM 45 min
Description: as §1, §2

Q725C mutant Pgp = Q725C mutant Pgp (Homo sapiens, UniProt P08183, C1074A/C1125A/C1227A/C137A/C431A/C717A/C956A/Q725C); conditions: compared to cysless WT Pgp (taken as 100%), calcein-AM 0.5 µM 10 min, Rh123 […], other substrates 0.5 µM 45 min
Description: as §1, §2

Q725C/V982C mutant Pgp = Q725C/V982C mutant Pgp (Homo sapiens, UniProt P08183, C1074A/C1125A/C1227A/C137A/C431A/C717A/C956A/Q725C/V982C); conditions: compared to cysless WT Pgp (taken as 100%), calcein-AM 0.5 µM 10 min, Rh123 […], other substrates 0.5 µM 45 min
Description: as §1, §2

V982C mutant Pgp = V982C mutant Pgp (Homo sapiens, UniProt P08183, C1074A/C1125A/C1227A/C137A/C431A/C717A/C956A/V982C); conditions: compared to cysless WT Pgp (taken as 100%), calcein-AM 0.5 µM 10 min, Rh123 […], other substrates 0.5 µM 45 min
Description: as §1, §2

Y307C mutant Pgp = Y307C mutant Pgp (Homo sapiens, UniProt P08183, C1074A/C1125A/C1227A/C137A/C431A/C717A/C956A/Y307C); conditions: compared to cysless WT Pgp (taken as 100%), calcein-AM 0.5 µM 10 min, Rh123 […], other substrates 0.5 µM 45 min
Description: as §1, §2

[1] = biological target: Y307C/Q725C/V982C mutant Pgp (Homo sapiens, UniProt P08183, C1074A/C1125A/C1227A/C137A/C431A/C717A/C956A/Q725C/V982C/Y307C); conditions: Y307/Q725C/V982C in HeLa cells; compared to cysless WT Pgp (taken as 100%); calcein-AM 0.5 µM 10 min, Rh123 […], other substrates 0.5 µM 45 min
Description: as §1, §2

Y307C/V982C mutant Pgp = Y307C/V982C mutant Pgp (Homo sapiens, UniProt P08183, C1074A/C1125A/C1227A/C137A/C431A/C717A/C956A/V982C/Y307C); conditions: compared to cysless WT Pgp (taken as 100%), calcein-AM 0.5 µM 10 min, Rh123 […], other substrates 0.5 µM 45 min
Description: as §1, §2

Measured: Transport function

CC(=O)OCOC(=O)CN(CC(=O)OCOC(C)=O)Cc1cc2c(cc1OC(C)=O)Oc1cc(OC(C)=O)c(CN(CC(=O)OCOC(C)=O)CC(=O)OCOC(C)=O)cc1C21OC(=O)c2ccccc21 [CalAM, calcein-AM]
55-65%: F728C/V982C mutant Pgp
90-100%: all other assays above
